± gives the expanded uncertainty stated by the source.
Assay: molar heat capacity at constant volume
Conditions: Liquid, Vacuum adiabatic calorimetry

CC(C)C [2-methylpropane]
Conditions | molar heat capacity at constant volume [J/K/mol]
119.82 K, 6500 kPa | 71.22 ± 1
122.33 K, 10732 kPa | 71.61 ± 1
124.97 K, 15325 kPa | 72.14 ± 1
127.43 K, 20667 kPa | 72.63 ± 1
130.02 K, 25536 kPa | 73.32 ± 1
132.43 K, 28973 kPa | 73.82 ± 1.1
141.37 K, 4922 kPa | 73.32 ± 1
143.72 K, 9088 kPa | 73.74 ± 1.1
146.26 K, 13401 kPa | 74.25 ± 1.1
148.59 K, 17196 kPa | 74.72 ± 1.1
151.09 K, 21305 kPa | 75.18 ± 1.1
153.38 K, 24872 kPa | 75.69 ± 1.1
155.84 K, 28673 kPa | 76.28 ± 1.1
162.3 K, 4549 kPa | 75.71 ± 1.1
164.6 K, 8126 kPa | 76.26 ± 1.1
167.03 K, 11587 kPa | 76.59 ± 1.1
169.29 K, 14798 kPa | 77.08 ± 1.1
171.69 K, 18296 kPa | 77.43 ± 1.1
173.93 K, 21461 kPa | 78.06 ± 1.1
176.29 K, 24825 kPa | 78.43 ± 1.1
178.5 K, 27869 kPa | 78.99 ± 1.1
180.83 K, 31062 kPa | 79.8 ± 1.1
183.24 K, 4049 kPa | 78.07 ± 1.1
185.45 K, 6869 kPa | 78.63 ± 1.1
187.83 K, 9994 kPa | 79.02 ± 1.1
190.01 K, 12743 kPa | 79.62 ± 1.1
192.38 K, 15769 kPa | 79.81 ± 1.1
194.51 K, 18415 kPa | 80.61 ± 1.1
196.86 K, 21369 kPa | 81.16 ± 1.1
198.97 K, 23939 kPa | 81.69 ± 1.2
201.31 K, 26822 kPa | 81.98 ± 1.2
203.38 K, 29282 kPa | 82.49 ± 1.2
203.62 K, 3700 kPa | 80.96 ± 1.1
205.69 K, 32085 kPa | 83.13 ± 1.2
205.82 K, 6192 kPa | 81.19 ± 1.1
208.09 K, 8785 kPa | 82.04 ± 1.2
210.26 K, 11205 kPa | 82.36 ± 1.2
212.53 K, 13758 kPa | 83 ± 1
214.66 K, 16095 kPa | 83.42 ± 1.2
216.92 K, 18597 kPa | 83.89 ± 1.2
219.02 K, 20866 kPa | 84.44 ± 1.2
221.26 K, 23313 kPa | 85 ± 1
223.33 K, 25507 kPa | 85.63 ± 1.2
224.21 K, 3209 kPa | 84.09 ± 1.2
225.57 K, 27916 kPa | 85.85 ± 1.2
226.5 K, 5490 kPa | 84.53 ± 1.2
227.6 K, 30036 kPa | 86.44 ± 1.2
228.59 K, 7563 kPa | 85.18 ± 1.2
229.83 K, 32388 kPa | 86.73 ± 1.2
230.86 K, 9783 kPa | 85.57 ± 1.2
232.95 K, 11833 kPa | 86.15 ± 1.2
235.18 K, 13991 kPa | 86.65 ± 1.2
237.26 K, 16001 kPa | 87.31 ± 1.2
239.46 K, 18103 kPa | 87.79 ± 1.2
241.54 K, 20084 kPa | 88.35 ± 1.2
243.72 K, 22131 kPa | 88.62 ± 1.3
244.91 K, 2940 kPa | 87.7 ± 1.2
245.77 K, 24074 kPa | 89.4 ± 1.3
246.88 K, 4626 kPa | 88.13 ± 1.2
247.92 K, 26062 kPa | 89.81 ± 1.3
249.24 K, 6667 kPa | 88.84 ± 1.3
249.98 K, 27977 kPa | 90.18 ± 1.3
251.17 K, 8311 kPa | 89.23 ± 1.3
252.11 K, 29918 kPa | 91.01 ± 1.3
253.54 K, 10334 kPa | 89.74 ± 1.3
254.15 K, 31797 kPa | 91.18 ± 1.3
255.44 K, 11931 kPa | 90.33 ± 1.3
257.8 K, 13926 kPa | 90.58 ± 1.3
259.68 K, 15488 kPa | 91.3 ± 1.3
262.03 K, 17452 kPa | 91.98 ± 1.3
263.88 K, 18974 kPa | 92.4 ± 1.3
264.62 K, 2580 kPa | 91.58 ± 1.3
266.23 K, 20919 kPa | 93.11 ± 1.3
266.61 K, 4054 kPa | 92.14 ± 1.3
268.06 K, 22404 kPa | 93.8 ± 1.3
268.91 K, 5781 kPa | 92.42 ± 1.3
270.4 K, 24318 kPa | 94.15 ± 1.3
270.88 K, 7235 kPa | 92.99 ± 1.3
272.22 K, 25772 kPa | 94.9 ± 1.3
273.17 K, 8940 kPa | 93.07 ± 1.3
274.56 K, 27659 kPa | 95.07 ± 1.4
275.12 K, 10363 kPa | 94.06 ± 1.3
276.36 K, 29087 kPa | 95.35 ± 1.4
277.4 K, 12047 kPa | 94.2 ± 1.3
278.68 K, 30942 kPa | 95.99 ± 1.4
279.34 K, 13450 kPa | 95.2 ± 1.4
280.46 K, 32342 kPa | 96.46 ± 1.4
281.62 K, 15113 kPa | 95.82 ± 1.4
283.54 K, 16491 kPa | 96.18 ± 1.4
283.66 K, 2372 kPa | 95.67 ± 1.4
285.76 K, 3730 kPa | 96.28 ± 1.4
285.81 K, 18136 kPa | 97.4 ± 1.4
287.72 K, 19487 kPa | 97.22 ± 1.4
287.93 K, 5135 kPa | 96.68 ± 1.4
289.99 K, 21118 kPa | 98.16 ± 1.4
290.04 K, 6483 kPa | 97.37 ± 1.4
291.87 K, 22438 kPa | 98.44 ± 1.4
292.18 K, 7863 kPa | 98.07 ± 1.4
294.14 K, 24048 kPa | 99.1 ± 1.4
294.3 K, 9205 kPa | 98 ± 1
296.01 K, 25350 kPa | 99.94 ± 1.4
296.42 K, 10563 kPa | 98.75 ± 1.4
298.28 K, 26943 kPa | 99.99 ± 1.4
298.53 K, 11894 kPa | 98.97 ± 1.4
300.14 K, 28222 kPa | 100.48 ± 1.4
300.64 K, 13229 kPa | 100.03 ± 1.4
302.39 K, 29793 kPa | 100.74 ± 1.4
302.75 K, 14551 kPa | 100.42 ± 1.4
303.81 K, 2271 kPa | 99.83 ± 1.4
304.25 K, 31058 kPa | 101.52 ± 1.4
304.85 K, 15868 kPa | 101.01 ± 1.4
306.07 K, 3504 kPa | 100.71 ± 1.4
306.5 K, 32612 kPa | 102.04 ± 1.4
306.98 K, 17187 kPa | 101.25 ± 1.4
308.12 K, 4631 kPa | 100.8 ± 1.4
309.04 K, 18478 kPa | 102.38 ± 1.4
310.38 K, 5860 kPa | 101.98 ± 1.4
311.17 K, 19783 kPa | 102.14 ± 1.4
312.42 K, 6973 kPa | 101.82 ± 1.4
312.62 K, 2143 kPa | 102.01 ± 1.4
313.23 K, 21063 kPa | 102.98 ± 1.5
314.68 K, 8197 kPa | 102.64 ± 1.4
314.81 K, 3247 kPa | 102.19 ± 1.4
315.35 K, 22355 kPa | 103.37 ± 1.5
316.7 K, 9293 kPa | 102.97 ± 1.5
316.95 K, 4329 kPa | 103.28 ± 1.5
317.39 K, 23611 kPa | 103.51 ± 1.5
318.98 K, 10517 kPa | 103.88 ± 1.5
319.15 K, 5436 kPa | 103.12 ± 1.5
319.53 K, 24899 kPa | 104.29 ± 1.5
320.98 K, 11596 kPa | 104.6 ± 1.5
321.27 K, 6508 kPa | 104.19 ± 1.5
321.55 K, 26133 kPa | 104.78 ± 1.5
322.43 K, 2027 kPa | 103.88 ± 1.5
323.27 K, 12819 kPa | 104.79 ± 1.5
323.48 K, 7612 kPa | 104.96 ± 1.5
323.69 K, 27412 kPa | 105.09 ± 1.5
324.79 K, 3113 kPa | 105.07 ± 1.5
325.25 K, 13880 kPa | 105.73 ± 1.5
325.59 K, 8668 kPa | 104.99 ± 1.5
325.7 K, 28633 kPa | 106.08 ± 1.5
326.81 K, 4037 kPa | 105.22 ± 1.5
327.54 K, 15099 kPa | 105.76 ± 1.5
327.82 K, 9782 kPa | 105.71 ± 1.5
327.84 K, 29902 kPa | 106.3 ± 1.5
329.14 K, 5110 kPa | 105.78 ± 1.5
329.51 K, 16147 kPa | 106.45 ± 1.5
329.84 K, 31107 kPa | 106.78 ± 1.5
329.89 K, 10815 kPa | 106.1 ± 1.5
331.17 K, 6040 kPa | 106.74 ± 1.5
331.81 K, 17362 kPa | 106.57 ± 1.5
331.98 K, 32367 kPa | 107.91 ± 1.5
332.14 K, 11928 kPa | 106.39 ± 1.5
333.49 K, 7102 kPa | 106.91 ± 1.5
333.76 K, 18392 kPa | 107.16 ± 1.5
333.97 K, 33555 kPa | 107.88 ± 1.5
334.19 K, 12947 kPa | 107.66 ± 1.5
335.53 K, 8034 kPa | 107.69 ± 1.5
336.06 K, 19603 kPa | 107.61 ± 1.5
336.45 K, 14061 kPa | 107.61 ± 1.5
337.84 K, 9085 kPa | 108.12 ± 1.5
338 K, 20617 kPa | 108.51 ± 1.5
338.49 K, 15066 kPa | 108.51 ± 1.5
339.89 K, 10016 kPa | 108.49 ± 1.5
340.31 K, 21824 kPa | 108.42 ± 1.5
340.75 K, 16177 kPa | 108.82 ± 1.5
342.19 K, 11067 kPa | 108.69 ± 1.5
342.23 K, 22826 kPa | 110.23 ± 1.6
342.77 K, 17169 kPa | 109.53 ± 1.6
344.24 K, 11989 kPa | 109.21 ± 1.5
344.55 K, 24029 kPa | 109.59 ± 1.6

Reference: the NIST ThermoML archive (doi:10.1021/je9001575)
